Calls of active or inactive are those of the source. The rule behind the calls is not given here.

A short description of assay [1]: Inhibition of pyruvate carboxylase in human HCCLM3 cell lysate measured upto 24 hrs by PC assay kit. In kind it is subcellular.
A short description of assay [2]: Antiproliferative activity against human HCCLM3 cells assessed as inhibition of cell growth measured after 48 hrs by MTT assay. Type of assay: functional, cell-based. As to conditions: HCCLM3, 48 h. In general terms: Tetrazolium assays rely on reduction of a dye to a coloured formazan, in cell work by metabolically active cells.
The nature of assay [3]: Inhibition of pyruvate carboxylase in human HCCLM3 cells measured upto 24 hrs by PC assay kit. Type of assay: cell-based.
The subject of assay [4] is HepG2. Briefly: Antiproliferative activity against human HepG2 cells assessed as inhibition of cell growth measured after 48 hrs by MTT assay. In kind it is functional, cell-based. The note with it: HepG2, 48 h.
For assay [5], the system named is HepG2. Briefly: Cytotoxicity against human HepG2 cells assessed as cell viability at 8 nM incubated for 48 hrs by MTT assay. Type of assay: functional, cell-based.
Assay [6] is described as follows: Non-competitive inhibition of pyruvate carboxylase (unknown origin). Also on record: species or system Homo sapiens.
The subject of assay [7] is HepG2. The assay is described as follows: Cytotoxicity against human HepG2 cells assessed as cell viability at 1 to 4 nM incubated for 2 hrs by MTT assay. Type of assay: functional, cell-based. The note with it: dose 1-4 nM.
The nature of assay [8]: Inhibition of pyruvate carboxylase in human HepG2 cells measured upto 24 hrs by PC assay kit. Type of assay: cell-based.
Assay [9] can be described thus: Inhibition of pyruvate carboxylase in human HepG2 cell lysate measured upto 24 hrs by PC assay kit. In kind it is subcellular.
Assay [10] relates to HepG2. The assay is described as follows: Cytotoxicity against human HepG2 cells assessed as cell viability at 62.5 to 250 nM preincubated for 48 hrs by MTT assay. In kind it is functional, cell-based. The note with it: dose 62.5-250 nM.
Assay [11] in a line: Competitive inhibition of pyruvate carboxylase (unknown origin) assessed as inhibition constant at varying concentrations of ATP. Further details: species or system Homo sapiens.
The subject of assay [12] is HepG2. The assay is described as follows: Competitive inhibition of recombinant pyruvate carboxylase in human HepG2 cell lysate in presence of Erianin at 20 uM for 120 mins followed by irradiation of 365 nm UV light for 15 min by Native -PAGE analysis. Type of assay: subcellular.

For the molecule `COc1cc(O)cc(CCc2ccc(O)c(OC)c2)c1` [GIGANTOL], the IC50 (commonly the concentration at which inhibition is half-maximal) was 125 nM in [1], 57900 nM in [2], > 50000 nM in [3] and 1880 nM in the assay on HepG2 [4].

Consider `COc1ccc(CC(CCNC(=O)[C@H](CCCCNC(=O)CCCC[C@@H]2SC[C@@H]3NC(=O)N[C@@H]32)NC(=O)c2ccc(N=[N+]=[N-])cc2)c2cc(OC)c(OC)c(OC)c2)cc1O` (some centres not stated), for which the result in the assay with HepG2 [5] was inactive.

With `COc1ccc(CC(CCNC(=O)[C@H](CCCCNC(=O)c2ccc(N=[N+]=[N-])cc2)NC(=O)CCCC[C@@H]2SC[C@@H]3NC(=O)N[C@@H]32)c2cc(OC)c(OC)c(OC)c2)cc1O` (some centres not stated), the result in the assay on HepG2 [5] was inactive.

For `COc1cc(O)cc2c1-c1c(O)cccc1CC2` [HIRCINOL], the IC50 is > 50000 nM in assay [1], > 100000 nM in [2] and > 100000 nM in the assay with HepG2 [4].

In the case of `COc1ccc(CC(CCNC(=O)[C@H](CCCCNC(=O)CCCC[C@@H]2SC[C@@H]3NC(=O)N[C@@H]32)NC(=O)CCC2(C)N=N2)c2cc(OC)c(OC)c(OC)c2)cc1O` (some centres not stated), the outcome in the assay with HepG2 [5] was inactive.

`COc1cc(O)c2c(c1)CCc1cccc(O)c1-2`: the 50% inhibitory concentration (IC50) in assay [1] turned out to be 204 nM; in assay [2] it was 8540 nM; in assay [3] it was 104 nM; in the assay on HepG2 [4], 1740 nM.

For the molecule `COc1ccc(/C=C/c2cc(O)cc(O[C@@H]3O[C@H](CO)[C@@H](O)[C@H](O)[C@H]3O)c2)cc1O` [RHAPONTIN], the IC50 in assay [1] is > 50000 nM; in assay [2], > 100000 nM; in the assay on HepG2 [4] it was > 100000 nM.

In the case of `CCCCCCCCOC(=O)c1cc(O)c(O)c(O)c1` [OCTYL_GALLATE], in assay [6], the Ki (usually the equilibrium dissociation constant of an inhibitor or competing ligand from its target) was 700 nM.

In the case of `COc1ccc(CC(CCOC(=O)CCCCCNC(=O)CCCC[C@@H]2SC[C@@H]3NC(=O)N[C@@H]32)c2cc(OC)c(OC)c(OC)c2)cc1O` (some centres not stated), the outcome in the assay with HepG2 [7] was inactive.

In the case of `COc1ccc(CC(CCNC(=O)COCCOCCOCCNC(=O)[C@H](CCCCNC(=O)CCCC[C@@H]2SC[C@@H]3NC(=O)N[C@@H]32)NC(=O)c2ccc(N=[N+]=[N-])cc2)c2cc(OC)c(OC)c(OC)c2)cc1O` (some centres not stated), the outcome in the assay on HepG2 [5] was inactive.

Take `COc1ccc(CC(CCNC(=O)[C@H](CCCCNC(=O)CCC2(C)N=N2)NC(=O)CCCC[C@@H]2SC[C@@H]3NC(=O)N[C@@H]32)c2cc(OC)c(OC)c(OC)c2)cc1O` (some centres not stated): the outcome with HepG2 [5] was inactive.

Regarding `COc1cc(O)cc2c1-c1c(O)cccc1[C@@H](O)C2`, the IC50 is 264 nM in assay [1], > 100000 nM in assay [2], 47 nM in [3] and 2580 nM in the assay with HepG2 [4].

For `COc1cc(O)cc(CCc2ccc(OC)c(O)c2)c1`, the IC50 in [1] is > 50000 nM; in assay [2], > 100000 nM; with HepG2 [4] it was > 100000 nM.

Take `O=C(O)CC(=O)C(=O)O` [OXALOACETATE]: the half-inhibitory concentration (IC50) in assay [8] is 100 nM; in assay [1] it was 88.8 nM; in [9], 88.8 nM; in [3] it was 100 nM.

As to `COc1cc(O)cc2c1-c1c(O)cc(O)cc1C[C@@H]2O`, the figures for the IC50 (in assay [1]; in assay [2]; with HepG2 [4]) were > 50000 nM, > 100000 nM and > 100000 nM, respectively.

Regarding `COc1ccc(CC(CCO)c2cc(OC)c(OC)c(OC)c2)cc1O` (configuration not stated), the outcome with HepG2 [10] was Active. For the same molecule, the result in the assay on HepG2 [5] was inactive.

For `COc1ccc(CCc2cc(OC)c(OC)c(OC)c2OCCOC(=O)CCCCCNC(=O)CCCC[C@@H]2SC[C@@H]3NC(=O)N[C@@H]32)cc1O`, the result with HepG2 [7] was inactive.

Regarding `COc1cc(O[C@@H]2O[C@H](CO)[C@@H](O)[C@H](O)[C@H]2O)cc2ccc3cccc(O)c3c12`, the IC50 worked out at 65 nM in assay [1], 29900 nM in assay [2], 97 nM in [3] and 2660 nM in the assay on HepG2 [4].

For the molecule `COc1ccc(CC(CCNC(=O)CNC(=O)[C@H](CCCCNC(=O)CCCC[C@@H]2SC[C@@H]3NC(=O)N[C@@H]32)NC(=O)c2ccc(N=[N+]=[N-])cc2)c2cc(OC)c(OC)c(OC)c2)cc1O` (some centres not stated), in the assay on HepG2 [5], the outcome was inactive.

In the case of `COc1ccc(CC(O)c2cc(OC)c(OC)c(OC)c2)cc1O` (configuration not stated), in the assay on HepG2 [10], the outcome was Active.

`COc1cc(O)cc2c1-c1c(O)cc(O)cc1[C@@H](O)C2`: the IC50 in assay [1] was > 50000 nM; in assay [2], > 100000 nM; in the assay with HepG2 [4] it was > 100000 nM.

Consider `OC[C@H]1O[C@@H](Oc2cccc3c2-c2c(O)cc(O)cc2C[C@H]3O)[C@H](O)[C@@H](O)[C@@H]1O`, for which the IC50 in [1] is > 50000 nM; in [2] it was > 100000 nM; with HepG2 [4], > 6420 nM.

Take `COc1ccc(CC(CCNC(=O)COCCOCCOCCNC(=O)[C@H](CCCCNC(=O)CCCC[C@@H]2SC[C@@H]3NC(=O)N[C@@H]32)NC(=O)CCC2(C)N=N2)c2cc(OC)c(OC)c(OC)c2)cc1O` (some centres not stated): in the assay with HepG2 [5], the result was inactive.

Consider `COc1cc(CCc2cc(OC)c(O)c(OC)c2)ccc1O` [MOSCATILIN], for which the IC50 was found to be 191 nM in [1], 2090 nM in [2], 34 nM in assay [3] and 3020 nM in the assay on HepG2 [4].

With `COc1cc(O[C@@H]2O[C@H](CO)[C@@H](O)[C@H](O)[C@H]2O)cc2c1-c1c(O)cccc1[C@H](O)C2`, the values for the IC50 (in assay [1]; in [2]; with HepG2 [4]) were > 50000 nM, > 100000 nM and > 100000 nM, respectively.

For `N[C@@H](CC(=O)O)C(=O)O` [ASPARTIC ACID], in [11], the inhibition constant (Ki) turned out to be 700 nM.

As for `COc1ccc(CC(CCNC(=O)[C@H](CCCCNC(=O)CCC2(C)N=N2)N=[N+]=[N-])c2cc(OC)c(OC)c(OC)c2)cc1O` (some centres not stated), in the assay with HepG2 [12], the inhibition result was “Active”.

The molecule `Nc1ncnc2c1ncn2[C@@H]1O[C@@H]2CO[P@@](=O)(O)O[C@H]3[C@@H](O)[C@H](n4cnc5c(N)ncnc54)O[C@@H]3CO[P@@](=O)(O)O[C@H]2[C@H]1O` had a Ki in [6] of 700 nM.

Take `COc1cc(O)cc2c1-c1c(O)cccc1C[C@@H]2O`: the IC50 in [1] is > 50000 nM; in assay [2], > 100000 nM; in the assay with HepG2 [4], > 100000 nM.

As to `COc1cc(CCc2cc(O)c(OC)c(OC)c2)ccc1O`, the IC50 is > 50000 nM in assay [1], > 100000 nM in [2] and 1090 nM in the assay on HepG2 [4].

Source of the values: ChEMBL document CHEMBL5046245, “Identification of Pyruvate Carboxylase as the Cellular Target of Natural Bibenzyls with Potent Anticancer Activity against Hepatocellular Carcinoma via Metabolic Reprogramming” (J Med Chem, 2022).
